{"source": "patent US20040038861A1", "about": "“Methods and compositions for normalizing lipid levels in mammalian tissues” (priority 2001, published 2004)", "system": "soleus muscle", "experiment": "Glucose transport (2-deoxy-D-glucose uptake) in incubated soleus muscle strips", "assay_type": "cell-based, rat", "procedure": "Soleus muscle preparation. All experiments were performed according to protocols approved by the Institutional Animal Ethics Committee. 5-6 week-old male Wistar rats (160 g) were kept on a 12:12-h light/dark cycle, and fed and watered ad libitum. Animals were anaesthetised with 50 mg/kg Nembutal (pentobarbitone sodium), then sacrificed by cervical dislocation. Soleus muscles were dissected under oxygenated KHB (118 mM NaCl, 4.75 mM KCl, 1.2 mM MgSO4, 24.8 mM NaHCO3, 1.2 mM KH2PO4, 2.54 mM CaCl2, 10 mM glucose, pH 7.4) and teased into halves, then incubated as described below.\nDetermination of rates of glucose transport in incubated soleus muscle strips. 4-5 muscle strips were added to each flask, which contained 10 ml DMEM. They were pre-incubated with hormones as indicated for 30 min at 30° C. in a shaking water bath, after which 5 μl of 2[^3H]DOG (0.5 μCi/ml) and 5 μl D[^14C(U)]sorbitol (0.05 μCi/ml) were added, then incubated for another 30 min; RIA grade BSA was added to 0.9% (w/v) to prevent non-specific binding of insulin to flasks. Following incubation, muscle strips were transferred to ice-cold KHB for 5-10 min to remove excess [^3H]DOG and [^14C]sorbitol. They were then blotted, frozen, tendons excised, then lyophilized for a further 48 h. Muscles were then weighed, transferred to scintillation vials and digested with 0.5 ml 1 M NaOH at 60° C. for 1 h. Scintillation fluid (4 ml) was added to each vial, and samples counted in a Beckman liquid scintillation spectrometer, preset to count ^14C and ^3H channels simultaneously. The amount of each isotope present in the samples was determined and used to calculate the extracellular space and the intracellular concentration of [^3H]DOG. The accumulation of intracellular [^3H]DOG, a measure of muscle glucose uptake, was calculated by subtracting the concentration of [^3H]DOG in the extracellular space from the corresponding total muscle [^3H]DOG]; extracellular [^3H]DOG was quantified by measuring the muscle concentration of [^14C]sorbitol.\nData analysis. One way ANOVA, Dunnett's Multiple Comparisons Test, and unpaired Student's t-tests were used to calculate the statistical significance of differences, as appropriate. Dose-response curves were fitted to a sigmoidal dose-response algorithm, as follows: Y=minimum+(maximum−minimum)/([…] log ^(EC50^−X), for 2-DOG-uptake; and by a four parameter logistic model, Y=minimum+(maximum−minimum)/(1+10 log ^(EC50^−X)Hill-Coefficient) for total glycogen and [^14C]glucose incorporation. Calculations were performed using Prism v2.0 (GraphPad Software, San Diego, Calif.) to derive values for half-maximal effective concentration (EC50). Displacement curves derived for competition of bound radioligand with cold ligand in transfected cells were calculated according to a one site competition fit using Prism v2.0."}
{"substance": "Rat amylin", "values": [{"measurement": "decrease of insulin-stimulated glucose uptake", "setting": "amylin 10 nM, insulin 23.7 nM", "value": 31, "unit": "%"}, {"measurement": "2-DOG-uptake, insulin-stimulated", "setting": "amylin (10 nM) + insulin (23.7 nM)", "value": "19.5±3.6", "unit": "nmol/g dry-wt muscle/min"}, {"measurement": "2-DOG-uptake", "setting": "hormone alone (amylin 10 nM; insulin 23.7 nM), basal 8.8 ± 0.9", "value": "13.4 ± 2.4", "unit": "nmol/g dry-wt muscle/min"}]}
